Assay results taken from ChEMBL document CHEMBL5120940, “Indolactam Dipeptides as Nanomolar Gli Inhibitors” (ACS Med Chem Lett, 2022).
Calls of active or inactive are those of the source. The calls are words filed in the database; no cut-off is given here.

How the values were obtained:
Type in all cases: cell-based
[1] = Inhibition of GLI in SAG induced mouse Shh Light II cells assessed as residual Smo-dependent Gli luciferase activity in starvation medium incubated for 30 hrs by dual luciferase assay
Shh Light II = assay: Inhibition of GLI in SAG induced mouse Shh Light II cells assessed as residual Smo-dependent Gli luciferase activity in starvation medium at 100 nM incubated for 30 hrs by dual luciferase assay
[2] = Inhibition of GLI in SAG induced mouse C3H10T1/2 cells assessed reduction Gli-dependent differentiation by measuring ALP activity incubated for 48 hrs by chemiluminescence assay; conditions: C3H 10T1/2, 48 h
[3] = Inhibition of GLI in SAG induced mouse Sufu-KO-LIGHT cells assessed as residual Smo-independent Gli luciferase activity in starvation medium incubated for 30 hrs by dual luciferase assay
Sufu-KO-LIGHT = assay: Inhibition of GLI in SAG induced mouse Sufu-KO-LIGHT cells assessed as residual Smo-independent Gli luciferase activity in starvation medium at 100 nM incubated for 30 hrs by dual luciferase assay
NIH/3T3 = assay: Inhibition of GLI in mouse NIH/3T3 cells assessed as reduction in CMV-driven firefly luciferase activity in starvation medium at 100 nM incubated for 30 hrs by Bright-Glo luciferase assay
[4] = Inhibition of GLI in mouse ASZ001 cells assessed as reduction in cell viability in starvation medium incubated for 48 hrs by CellTiter assay; conditions: ASZ001, 48 h
ASZ001 = assay: Inhibition of GLI in mouse ASZ001 cells assessed as reduction in cell viability in starvation medium at 1.5 uM incubated for 48 hrs by CellTiter assay relative to control

| Compound | IC50 [1] [nM] | Activity (Shh Light II) [%] | IC50 [2] [nM] | IC50 [3] [nM] | Activity (Sufu-KO-LIGHT) [%] | Activity (NIH/3T3) | IC50 [4] [nM] | inhibition (ASZ001) [%] |
| --- | --- | --- | --- | --- | --- | --- | --- | --- |
| CCC(C)[C@H]1C(=O)N[C@H](CO)Cc2c[nH]c3cccc(c23)N1C (some centres not stated) | 33 | 53 | 30 | 6.8 | 36 | Active |  |  |
| CC(C)[C@H]1C(=O)N[C@H](CO)Cc2c[nH]c3c(Br)ccc(c23)N1C | 1280 | 70 |  | 264 | 23 |  |  |  |
| CC(C)[C@H]1C(=O)N[C@H](CO)Cc2cc(NC(=O)/C=C/C=C/c3ccc(C(F)(F)F)cc3)ccc2N1C (stereo in doubt) |  |  |  |  |  |  | 0.16 |  |
| CS(=O)(=O)c1ccc(C(=O)Nc2ccc(Cl)c(-c3ccccn3)c2)c(Cl)c1 [VISMODEGIB] | 37 | 43 | 58 | > 5000 | 96 |  | 2 |  |
| CC(C)[C@H]1C(=O)N[C@H](CO)Cc2cn(C(C)C)c3cccc(c23)N1C | 309 | 96 |  | 464 | 78 |  |  |  |
| CC(C)[C@H]1C(=O)N[C@H](CO)Cc2c[nH]c3cccc(c23)N1C [INDOLACTUM] | 33 | 68 | 171 | 13 | 39 | Active |  | 62 |
| CC(=O)n1cc2c3c(cccc31)N(C)[C@@H](C(C)C)C(=O)N[C@H](CO)C2 | 195 | 73 |  | 655 | 67 |  |  |  |
| CCCCCCn1cc2c3c(cccc31)N(C)[C@@H](C(C)C)C(=O)N[C@H](CO)C2 | 113 | 83 | 27 | 7.9 | 25 | Active | 0.5 | 38 |
| CC(C)[C@H]1C(=O)N[C@@H](CO)Cc2c[nH]c3cccc(c23)N1C | > 5000 | 100 | > 5000 | 1920 | 78 |  |  |  |
| COC(=O)[C@@H]1Cc2c[nH]c3cccc(c23)N(C)[C@@H](C(C)C)C(=O)N1 | 3460 | 99 |  | 77 | 67 |  |  |  |
| C=CC(C)(C)c1ccc2c3c(c[nH]c13)C[C@@H](CO)NC(=O)[C@H](C(C)C)N2C [PENDOLMYCIN] | > 5000 | 60 |  | > 5000 | 46 |  |  |  |
| CC(C)[C@H]1C(=O)N[C@H](CO)Cc2cn(C)c3cccc(c23)N1C | 69 | 66 | 498 | 20 | 42 | Active |  |  |
| COC[C@@H]1Cc2cn(C)c3cccc(c23)N(C)[C@@H](C(C)C)C(=O)N1 | 478 | 86 |  | 1820 | 69 |  |  |  |
| C=C[C@@](C)(CCC=C(C)C)c1ccc2c3c(c[nH]c13)C[C@@H](CO)NC(=O)[C@H](C(C)C)N2C | > 5000 | 90 |  | > 5000 | 47 |  |  |  |
